Laboratory results reported in patent US11667632B2, “2-(1H-indazol-3-yl)-3H-imidazo[4,5-C]pyridines and their anti-inflammatory uses thereof” (BioSplice Therapeutics, Inc., priority 2015, dated 2023).

Tests used:
Assay type in all cases: physicochemical
[1] = Slurry experiments in various solvents (polymorph screen)
Experimental: Slurry experiments in various solvents were performed. Approximately 30-80 mg of the starting solid (a non-stoichiometric hydrate of Form 1 having between […] and about 20% by weight water) was slurried in 39 different solvents (pure and binary solvents; the ratio of organic solvent/water (V/V) was […]) at RT and 50° C. for 5 days. Three solvates, one non-stoichiometric hydrate, and eleven non-solvated forms were identified. […] XRD of both wet and dry samples were scanned (FIG. 12A (dry sample)).
The slurry experiments identified 3 solvated forms from wet samples (Solvates 1, 2, and 3); 2 non-stoichiometric hydrates of Form 1 (Forms 12 and 13); and 11 non-solvated forms (Forms 1-11). In some instances, similar XRD scans with minor differences were obtained. These were considered to be part of the same class (e.g., the same form). For example, XRD scans of Form 2 and Form 2* were similar and were considered to belong to the same class. The solvated forms were obtained from wet sample analysis; after drying, the sample indicated a different XRD.
Solvate 1 was obtained from acetone at RT, and after drying, a low crystallinity solid was generated. Solvate 2 was obtained from acetone (at RT) and acetone/water (at RT), and after drying, Form 4** was generated. Solvate 3 was obtained from EtOH/water at RT, and after drying, Form 2 was generated.

[2] = Competitive slurry experiments between polymorph forms (thermodynamic stability); conditions: water at RT and 50° C.; slurried 3-5 days, XRD
Experimental: In order to find out the thermodynamic stability between the different forms, several competitive slurry experiments were carried out. Form 1, Form 2, Form 2*, Form 3, Form 4, Form 4*, Form 4**, Form 5, Form 7, Form 8, Form 9, Form 10, Form 11, Form 11*, and Form 13 (10 mg for each) was mixed and slurried in 2 mL of solvent at both RT and 50° C. The solids were slurried for 3-5 days and then analyzed by XRD.
In order to find out the thermodynamic stability between Form 13 and Form 9, several competitive slurry experiments were carried out. 15 mg of Form 1, Form 9 and Form 13 solid were mixed in 1 mL of toluene, IPAc, and n-butyl acetate, and slurried for 3 days at RT and 50° C.
The residual solid was analyzed by XRD.

[3] = Dynamic vapor sorption (DVS) scan; conditions: at 90% RH
Excerpt: The purity of the Form 13 sample was 98.8%; the KF of an undried Form 13 sample was 35.7%.

[4] = slurry in Acetonitrile/water (5% water), 50° C.
[5] = slurry in DCM/water (5% water), 50° C.
[6] = slurry in DCM/water (5% water), RT
[7] = slurry in Heptane/water (5% water), 50° C.
[8] = slurry in Heptane/water (5% water), RT
[9] = slurry in IPAc/water (5% water), 50° C.
[10] = slurry in MA/water (5% water), RT
[11] = slurry in MIBK/water (5% water), 50° C.
[12] = slurry in MeOH/water (5% water), 50° C.
[13] = slurry in MtBE/water (5% water), 50° C.
[14] = slurry in Toluene/water (5% water), 50° C.
[15] = slurry in Toluene/water (5% water), RT
[16] = slurry in n-Butanol/water (5% water), 50° C.
[17] = slurry in n-Butanol/water (5% water), RT
[18] = slurry in n-Butyl acetate/water (5% water), 50° C.
[19] = slurry in n-Butyl acetate/water (5% water), RT

- Form, Dry [1, 4]: Form 13
- Form, Wet [1, 4]: Form 13
- Form, Dry ([1]; slurry in DCM, 50° C.): Form 13
- Form, Wet ([1]; slurry in DCM, 50° C.): Form 13
- Form, Dry [1, 5]: Form 1
- Form, Wet [1, 5]: Form 13
- Form, Dry [1, 6]: Form 1
- Form, Wet [1, 6]: Form 13
- Form, Dry ([1]; slurry in Heptane, 50° C.): Form 13
- Form, Wet ([1]; slurry in Heptane, 50° C.): Form 13
- Form, Dry [1, 7]: Form 1
- Form, Wet [1, 7]: Form 13
- Form, Dry [1, 8]: Form 12
- Form, Wet [1, 8]: Form 13
- Form, Dry [1, 9]: Form 13
- Form, Wet [1, 9]: Form 13
- Form, Dry [1, 10]: Form 1
- Form, Wet [1, 10]: Form 13
- Form, Dry [1, 11]: Form 1
- Form, Wet [1, 11]: Form 13
- Form, Dry ([1]; slurry in MeOH, RT): Form 1
- Form, Wet ([1]; slurry in MeOH, RT): Form 13
- Form, Dry [1, 12]: Form 13
- Form, Wet [1, 12]: Form 13
- Form, Dry [1, 13]: Form 13
- Form, Wet [1, 13]: Form 13
- Form, Dry [1, 14]: Form 13
- Form, Wet [1, 14]: Form 13
- Form, Dry [1, 15]: Form 1
- Form, Wet [1, 15]: Form 13
- Form, Dry [1, 16]: Form 1
- Form, Wet [1, 16]: Form 13
- Form, Dry [1, 17]: Form 13
- Form, Wet [1, 17]: Form 13
- Form, Dry [1, 18]: Form 1
- Form, Wet [1, 18]: Form 13
- Form, Dry [1, 19]: Form 12
- Form, Wet [1, 19]: Form 13
- Form, Dry ([1]; slurry in water, 50° C.): Form 13
- Form, Wet ([1]; slurry in water, 50° C.): Form 13
- Form, Dry ([1]; slurry in water, RT): Form 1
- Form, Wet ([1]; slurry in water, RT): Form 13
- thermodynamic stability between forms (competitive slurry) [2]: most stable
- water absorption (DVS scan) [3]: 17%
SMILES: CC(C)CC(=O)Nc1cncc(-c2ccc3[nH]nc(-c4nc5c(-c6cccc(F)c6)cncc5[nH]4)c3c2)c1 [Form 13]
